Experimental data from patent US6875766B2, “Use of riboflavin and flavin derivatives as chitinase inhibitors” (Bayer AG, priority 2000, dated 2005).

Tests used:
[1] = target: Lucilia cuprina chitinase; assay: Chitinase inhibitory activity (IC50) against Lucilia cuprina chitinase; assay type: biochemical
Protocol: (§1) The chitinase inhibitory activity was determined as already described [Omura, S., Arai, N., Yamaguchi, Y., Masuma, R., Iwai, Y., Namikoshi, M., Turberg, A., Kölbl, H., Shiomi, K., J. Antibiot., 53, 603-608 (2000)].

[2] = tested on: Lucilia cuprina endochitinase; assay: Chitinase test with soluble extracts from Lucilia cuprina puppae; assay type: biochemical; settings: cytosolic extract of late pupae, MUF-triacetylchitotriose substrate
Protocol: Chitinase test with soluble extracts from Lucilia cuprina puppae
Test animals: Cytosol of Lucilia cuprina
The substances, which are dissolved in DMSO, are provided on 384-well microtiter plates in a concentration of 2 mM, the first four columns being empty. The substances are diluted 1:40 with 100 mM NPP pH 7.0 (50 μM). 5 μl of each of these dilutions are transferred to a 384-well test plate, starting with column 5. Into the first two columns there are pipetted in each case as negative control, into the third and fourth column in each case 5 μl of 5×10^-6 M allosamidin in 2.5% DMSO in 100 mM NPP pH 7.0 5 μl 2.5% DMSO in 100 mM NPP pH 7.0 as positive control.
The substances are incubated for 20 minutes at room temperature with 2.5 μg of cytosolic extract of late Lucilia cuprina puppae in 10 μl of 100 mM sodium phosphate buffer pH 7.0 and 10 μl of 100 μM methylumbelliferyl (MUF-triacetylchitotriose). The reaction is quenched by addition of 25 μl of 0.5 M glycine buffer 2 M sodium hydroxide, pH 10.4. The inhibition is determined by measuring the relative fluorescence at an excitation of 360±40 nm and an emission of 460±40 nm. The test substances are evaluated in comparison with the inhibition of the enzyme by allosamidin. The inhibition of the release of MUF is a measure for the efficacy of the inhibitor. In subsequent tests, concentration series in the range of from 100 nM to 200 μM are tested, and the release of MUF is measured every 2 minutes before the reaction is quenched.
Compounds which lead to more than 50% inhibition of chitinase at maximum reaction velocity at 100 μM are assessed as effective.

[3] = tested on: Periplaneta americana, third instar; assay: Injection test with Periplaneta larvae; assay type: in vivo; settings: 2 μg injected per larva; observed over 23 days
Protocol: Injection test with Periplaneta larvae
Test animals: Periplaneta americana, third instar
The compounds are prepared in aqueous solution (0.1 N acetic acid) and diluted as required. Using a 10 μl Hamilton syringe, 1 μl of the 20 or 2 μg were injected behind the 3rd pair of legs closely underneath the abdominal cavity of the cockroach larvae. Solvent (0.1 N acetic acid) was applied as control and 10 μg allosamidine as positive control. Batches of twenty cockroach larvae were treated per concentration and compound. On day 1, the control mortality and the initial mortality caused essentially by artificial effects during the injection were determined. If this initial mortality was less than 50%, the experiment was continued. The cockroach larvae were placed on filter paper in standard Petri dishes (9.5 cm Ø), and a quarter of a wafer was added. The ecdysis rate of the control animals and of the treated cockroach larvae was observed over a period of 23 days, and larval mortality and inhibition of ecdysis were recorded after days 1, 5 and 23. The efficacy is calculated using the following formula. [formula]

[4] = tested on: Streptomyces griseus chitinase (Sigma); assay: Chitinase inhibitory activity against Streptomyces griseus chitinase; assay type: biochemical; settings: at 100 μM (37° C.)
Protocol: as §1

[5] = tested on: Vibrio alginolyticus chitinase (Kyowa Medex); assay: Chitinase inhibitory activity against Vibrio alginolyticus chitinase; assay type: biochemical; settings: at 100 μM (37° C.)
Protocol: as §1

**Q.** What does the source list for Cc1cc2nc3c(=O)[nH]c(=O)nc-3n(C[C@H](O)[C@H](O)[C@H](O)CO)c2cc1C [compound 1, riboflavin]?
**A.** IC50 ([1]; 20° C.): 380 nM; IC50 ([1]; 37° C.): 2100 nM; inhibition of the Lucilia cuprina endochitinase ([2]; 10 μM): >>50%; inhibition of the Lucilia cuprina endochitinase ([2]; 100 μM): >>50%; inhibition of the Lucilia cuprina endochitinase ([2]; 200 μM): >>>50%; mortality against Periplaneta americana third instars [3]: More than 50%; inhibition of the Streptomyces griseus chitinase [4]: no inhibition; inhibition of the Vibrio alginolyticus chitinase [5]: no inhibition
